Consider five molecules from patent US20230134714A1, “COMPOSITIONS COMPRISING BACTERIAL STRAINS” (4D PHARMA RESEARCH LIMITED, priority 2018, published 2023).

In assay [1] the test system is graft versus host disease (GVHD) induced in Balb/C mice. The assay can be described thus: GVHD model (TBI plus allogeneic cell transfer). It counts as in vivo. An excerpt:
All animals were weighed and randomized by weight into treatment groups prior to study start. Prior to GVHD induction on Days −1 and 0, all animals were pre-treated (PO) with PBS (Groups 1-4), NCIMB 43171 (Group 5), or Butyrate salt control (Group 6) daily starting on Day −14. Butyrate was used as a positive control as butyrate deficit has been identified in the gut of GVHD patients.
GVHD was induced in mice using a single acute dose of 8 Gy of total body irradiation (TBI) on Day −1. On Day 0, these recipient mice were given an intravenous injection of a combination of T cell depleted bone marrow cells and splenic cells from donor C57Bl/6 mice in PBS. Bone marrow cells were isolated using standard flushing practices, and were T cell depleted using the cell surface T cell antigen CD3, with a CD3-biotin kit (Miltenyi Biotec catalog 130-094-973). Splenocytes were isolated using Miltenyi GentleMACS Dissociators. Animals in Group 1 served as naïve controls and received neither TBI nor cell transfer. […] Animals in Group 3 served as syngeneic adoptive transfer controls; these animals received 8 Gy of TBI on Day −1, and an intravenous injection of a combination of T cell depleted bone marrow cells and splenic cells from donor Balb/C mice in sterile PBS.
Daily test article dosing continued for the duration of the study (Days −14 to 30). Animal survival was recorded daily, as an indication of GVHD severity. Animals were also weighed, observed, and given a clinical GVHD score daily for the duration of the study following GVHD induction. The GVHD score was assessed by a standard scoring system based on five criteria (Table 21): percentage of weight change, posture (hunching), activity, fur texture, and skin integrity (maximum score=10).
On Day 29, all surviving animals underwent endoscopy to monitor colonic inflammation.
On Day 30, blood was collected by RO bleed; blood (approximately 150-300 μL) was collected into two tubes—approximately two third of the blood was collected into K2EDTA tubes, and the remaining one third was collected into lithium-heparin tubes. Both samples were centrifuged and processed for plasma, and plasma tubes were clearly labeled to indicate the anti-coagulant used. For the K2EDTA sample, plasma was aliquoted as follows: 25 μL (for use in downstream citrulline assay), and remainder. All plasma was frozen at −80° C. All K2EDTA samples were assessed for citrulline by ELISA upon study completion

In assay [2] the test system is HDAC. Nature of the assay: Global HDAC activity analysis in HT-29 cells. It counts as cell-based. The conditions noted are these: for inhibition of total HDAC activity: whole HT-29 cells or cell lysate not specified. Here is the method:
Whole cells and cell free supernatants of stationary phase 43042 cultures were isolated by centrifugation and filtering in a 0.22 uM filter. HT-29 cells were used 3 days' post confluence and stepped down in 1 mL DTS 24 hours prior to commencement of the experiment. The HT-29 cells were challenged with 10% cell free supernatant diluted in DTS and this was left to incubate for 48 hours. […] proteins were then extracted using the Sigma Aldrich […] extraction kit and samples were snap frozen prior to HDAC activity measurement. HDAC activity kit was assessed fluorometrically using the Sigma Aldrich (UK) kit.
(§1) To investigate which metabolites were responsible for the strain-induced HDAC inhibition, different concentrations of hexanoic acid, valeric acid and sodium butyrate were measured for their HDAC inhibition on whole HT-29 cells and on HT-29 cell lysate.

In assay [3] the test system is HDAC. Nature of the assay: HDAC inhibition on HT-29 cell lysate. It counts as biochemical. The conditions noted are these: different concentrations. Here is the method: as §1
Setting [4] is: compared with Group 4 (PBS-TBI+allogeneic transfer).

Structures can show the parent of a compound that is named as a salt.

As for `CCCC(=O)O` [Butyrate salt control], the “mean body weight over the course of the study” value in assay [1] (compared to Group 1 (PBS-naive)) is listed as “significantly decreased”; in assay [1] (compared to Group 3 (PBS-TBI+syngeneic transfer)) it was “significantly decreased”; in assay [1] (setting [4]), “No significant differences”. Besides, the “mean colitis severity scores” value in assay [1] (endoscopy Day 29, compared to naive mice (Group 1)) is listed as “increased”.

Consider `CCCCC(=O)O` [Valeric acid, valeric acid], for which, in the assay on HDAC [2], the “inhibition of total HDAC activity” value is “inhibited total HDAC activity”.

On to `CCCCCC(=O)O` [hexanoic acid], for which the “inhibition of total HDAC activity” value in the assay on HDAC [2] is on record as “did show significant inhibitory activity”.

In the case of `CCCC(=O)[O-].[Na+]` [sodium butyrate, Sodium butyrate], in the assay with HDAC [2] (different concentrations, whole cells), the “inhibition of HDAC activity on whole HT-29 cells” value is recorded as “significant (P<0.05) inhibition”. The “inhibition of HDAC activity on HT-29 cell lysate” value in the assay with HDAC [3] is reported as “significant (P<0.05) inhibition”.

Take `C=CC[C@@H]1/C=C(\C)C[C@H](C)C[C@H](OC)[C@H]2O[C@@](O)(C(=O)C(=O)N3CCCC[C@H]3C(=O)O[C@H](/C(C)=C/[C@@H]3CC[C@@H](O)[C@H](OC)C3)[C@H](C)[C@@H](O)CC1=O)[C@H](C)C[C@@H]2OC` [tacrolimus]: in assay [1] (compared to Group 3), the “mean GVHD scores” value is “trend was also observed”. Also, in assay [1] (setting [4]), the “mean body weight over the course of the study” value is on record as “same trend was observed”.
